We go through 11 compounds from US10065934B2, “Substituted urea derivatives and pharmaceutical uses thereof” (SUNSHINE LAKE PHARMA CO., LTD., priority 2014, dated 2018).

Read-outs that look alike come from different tables or passages of the source.

Data set [1] can be described thus: Evaluation of pharmacokinetic activity in male SD rats (iv and oral). It is filed as in vivo. The settings on record: rat, plasma; for Cmax: read-out: Cmax. As for the experimental part:
1. Preparation of the Test Compound Solutions
The test compound solutions were prepared using appropriate amounts of 5% DMSO, 5% KolliphorHS15 and 90% Saline to dissolve each compound completely.
140-190 g male SD rats were randomly divided into two groups. One group was administered through intravenous drug delivery with the dosage of 1.0 or 2.0 mg/kg, and the other group was administered by oral with the dosage of 5.0 mg/kg. For intravenous administration, caudal vein blood samples at the time points of 0.0833, 0.25, 0.5, 1.0, 2.0, 4.0, 6.0, 8.0 and 24 h were collected after drug administration (the time point of drug administration was set as 0 h); and for oral administration, caudal vein blood samples at the time points of 0.25, 0.5, 1.0, 2.0, 4.0, 6.0, 8.0 and 24 h were collected after drug administration (the time point of drug administration was set as 0 h). Appropriate range of standard curve was established according to the sample concentration, and the test compound concentrations in plasma sample were measured by LC-MS/MS analysis. Pharmacokinetic parameters were calculated by non-compartmental method using WinNonLin 6.3 software based on drug concentration-time curves.

In another data set the test system is MV-4-11 cell. As to the kind of experiment: In vitro cytology inhibitory activity (MV-4-11 cell proliferation, cell viability luminescence). It is filed as cell-based. The following applies: Homo sapiens, MV4-11; MV-4-11 cells, 72 h incubation. As for the experimental part:
Cell assay condition was shown below:
a. A complete medium was prepared and mixed well. b. Cell was recovered, and cell lines of between about two generations in good condition of growth were selected. c. The cell culture flasks were removed from the incubator, and the labeled cell name on the bottles, culture medium type and cell algebra were checked. d. The cell suspension was pipette into a centrifuge tube, and centrifuged at 800-1000 rpm for 3-5 minutes. e. Cell supernatant of the centrifuge tube was aspirated. f. Appropriate volume of culture medium was added into the centrifuge tube, and the cells were resuspended by gentle pipetting uniform. g. Vi-Cell XR cytometer was used for count. h. The cell suspension was adjusted to the appropriate concentration. i. The cell suspension was added to the bottom wall of the white 96-well plate, 100 microliters/well. Cells name, kind of board density and date were detailed labeled, and the culture plate was placed in CO2 incubator overnight.
2. Preparation and Addition of the Test Compounds
i) Preparation of test compound plates by diluting to 10 concentrations with DMSO: first, the test compound stock solution was prepared by dissolving a weighed compound in DMSO to a concentration of 10 mM, and then diluted to the concentration of 4 mM, which was then diluted to the concentration of 0.4 mM used as the highest concentration for testing with DMSO. The highest concentration was sequentially followed by 3-fold dilution for a total of 10 concentrations. Staurosporine was the positive control drug. ii) Addition of test compounds: a. 0.5 μL of test compound prepared above in compound plate was added into the cell culture plate that had been incubated overnight. Then the culture plate was incubated in an incubator at 37° C. for 72 hours.
3. Detection and Analysis
a. 72 hours after the compound treatment, cells was observed under an inverted microscope morphology, and cell growth state in DMSO control well was normal, there was no contamination. b. The cell culture plate was placed in equilibrium at room temperature for 30 minutes. c. The cell viability detection reagent at 100 μL/well was placed into culture plate. d. The mixture in culture plate was mixed two minutes in the vibration plate machine to induce cell lysis. e. 96-well plate was placed for 10 minutes at room temperature, making it stable luminescent signal. f. White base film was pasted on the bottom of the culture plate, and the plate was tested by using Flexstation3 (related to: light, integration time 500 ms). g. Experimental results were recorded and analyzed.

For `CC(C)(C)c1cc(NC(=O)Nc2ccc(C#Cc3cnc4c(OCCN5CCOCC5)ccnn34)cc2)no1` [Example 9, 1-(5-(tert-Butyl)isoxazol-3-yl)-3-(4-((8-(2-morpholinoethoxy)imidazo[1,2-b]pyridazin-3-yl)ethynyl)phenyl)urea], in data set [1] (iv, 1 mg/kg), the area under the curve AUC(0-inf) was 1390 ng·h/mL, the AUC(0-t) stood at 1330 ng·h/mL, the Tmax amounted to 0.083 h and the half-life is 1.7 h. For the same compound, the Cmax in data set [1] (iv, 1 mg/kg) amounted to 793 ng/mL. Also, the Vd in data set [1] (iv, 1 mg/kg, read-out: Vss) is 1.62 L/kg. In data set [1] (po 5 mg/kg vs iv 1 or 2 mg/kg), the bioavailability stood at 116%. For the same compound, in data set [1] (po, 5 mg/kg), the AUC(0-inf) was determined as 8030 ng·h/mL, the area under the curve AUC(0-t) stood at 8010 ng·h/mL, the Tmax came to 2.67 h and the half-life was 2.85 h. In data set [1] (po, 5 mg/kg), the Cmax came to 1090 ng/mL.

As to `CC(C)(C)c1cc(NC(=O)Nc2ccc(C#Cc3ccc(OCCC[N+]4([O-])CCOCC4)cc3)cc2)no1` [Example 82, 4-(3-(4-((4-(3-(5-(tert-Butyl)isoxazol-3-yl)ureido)phenyl)ethynyl)phenoxy)propyl)morpholine 4-oxide], the IC50 in the data set on MV-4-11 cell came out at 3 nM.

In the data set on MV-4-11 cell, `CC(C)(C)c1cc(NC(=O)Nc2ccc(C#Cc3ccc(OCCCN4CCOCC4)c(O)c3)cc2)no1` [Example 86, 1-(5-(tert-Butyl)isoxazol-3-yl)-3-(4-((3-hydroxy-4-(3-morpholinopropoxy)phenyl)ethynyl)phenyl)urea] gave an IC50 of 0.9 nM.

Take `CC(C)(CO)c1cc(NC(=O)Nc2ccc(C#Cc3ccc(OCCCN4CCOCC4)cc3)cc2)no1` [Example 84, 1-(5-(1-Hydroxy-2-methylpropan-2-yl)isoxazol-3-yl)-3-(4-((4-(3-morpholinopropoxy)phenyl)ethynyl)phenyl)urea]: it took 2.1 nM to reach half-maximal inhibition in the data set with MV-4-11 cell (IC50).

Take `CC(C)(CO)c1cc(NC(=O)Nc2ccc(C#Cc3ccc(OCCC[N+]4([O-])CCOCC4)cc3F)cc2)no1` [Example 89, 4-(3-(3-Fluoro-4-((4-(3-(5-(1-hydroxy-2-methylpropan-2-yl)isoxazol-3-yl)ureido)phenyl)ethynyl)phenoxy)propyl)morpholine 4-oxide]: the IC50 in the data set with MV-4-11 cell was 4.8 nM.

Turning to `CC(C)(C)c1cc(NC(=O)Nc2ccc(C#Cc3ccc(OCCCN4CCOCC4)cc3)cc2)no1` [Example 21, 1-(5-(tert-Butyl)isoxazol-3-yl)-3-(4-((4-(3-morpholinopropoxy)phenyl)ethynyl)phenyl)urea], the IC50 with MV-4-11 cell was 2.8 nM.

In the data set on MV-4-11 cell, `CC(C)(CO)c1cc(NC(=O)Nc2ccc(C#Cc3ccc(OCCCN4CCOCC4)cc3F)cc2)no1` [Example 85, 1-(4-((2-Fluoro-4-(3-morpholinopropoxy)phenyl)ethynyl)phenyl)-3-(5-(1-hydroxy-2-methylpropan-2-yl)isoxazol-3-yl)urea] had an IC50 of 1.6 nM.

The compound `CC(C)(C)c1cc(NC(=O)Nc2ccc(C#Cc3ccc(OCCCN4CCC5(COC5)C4)cc3)cc2)no1` [Example 19, 1-(4-((4-(3-(2-Oxa-6-azaspiro[3.4]octan-6-yl)propoxy)phenyl)ethynyl)phenyl)-3-(5-(tert-butyl)isoxazol-3-yl)urea] showed an IC50 in the data set on MV-4-11 cell of 13.8 nM.

In the data set on MV-4-11 cell, `CC(C)(C)c1cc(NC(=O)Nc2ccc(C#Cc3ccc(OCCC[N+]4([O-])CCOCC4)cc3F)cc2)no1` [Example 83, 4-(3-(4-((4-(3-(5-(tert-Butyl)isoxazol-3-yl)ureido)phenyl)ethynyl)-3-fluorophenoxy)propyl) morpholine 4-oxide] returned an IC50 of 2.3 nM.

In the data set with MV-4-11 cell, `CC(C)(C)c1cc(NC(=O)Nc2ccc(C#Cc3ccc(OCCCN4CCOCC4)nc3)cc2)no1` [Example 17, 1-(5-(tert-Butyl)isoxazol-3-yl)-3-(4-((6-(3-morpholinopropoxy)pyridin-3-yl)ethynyl)phenyl) urea] registered an IC50 of 11.7 nM.

`CC(C)(CO)c1cc(NC(=O)Nc2ccc(C#Cc3ccc(OCCC[N+]4([O-])CCOCC4)cc3)cc2)no1` [Example 88, 4-(3-(4-((4-(3-(5-(1-Hydroxy-2-methylpropan-2-yl)isoxazol-3-yl)ureido)phenyl)ethynyl)phenoxy)propyl)morpholine 4-oxide]: the IC50 in the data set on MV-4-11 cell amounted to 1.8 nM.

As a reminder, the AUC(0-inf) is total exposure, with the tail of the curve extrapolated. Low values mean less exposure, high ones more exposure. By AUC(0-t) is commonly meant the area under the concentration-time curve up to a stated or last time point. Usually Tmax stands for the time from dosing to the highest level. The term half-life denotes how long it takes for the measured level to halve. One may read the Cmax as the maximum level reached in the sampled fluid or tissue. As a reminder, the IC50 is the point on the concentration scale where inhibition reaches its midpoint. A higher IC50 goes with a need for much substance.
